Active and inactive are the calls of the source.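 How the source made its calls: active means AC50 no more than ten times the top concentration tested; inconclusive means flat fit with inhibition between 30% and 70%, or unusable fit; inactive means AC50 beyond ten times the top concentration.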

Broadly, the AC50 is the midpoint of the concentration-response curve, whichever way the signal moves.

The target of the first experiment is Caspase recruitment domain-containing protein 9 (Homo sapiens) + B-cell lymphoma/leukemia 10 (Homo sapiens) (UniProt Q9H257+O95999). Nature of the experiment: disruptors of CARD9-BCL10 binding, dose response, selectivity assay for CARD9-TRIM62 disruptor project, cell lysate, HEK293FT lysates, Luminex bead ELISA (AID 1259340).
Caspase recruitment domain-containing protein 9 (Homo sapiens) + B-cell lymphoma/leukemia 10 (Homo sapiens), sequence (O95999 whole entry, looked up, the tested form may be a part): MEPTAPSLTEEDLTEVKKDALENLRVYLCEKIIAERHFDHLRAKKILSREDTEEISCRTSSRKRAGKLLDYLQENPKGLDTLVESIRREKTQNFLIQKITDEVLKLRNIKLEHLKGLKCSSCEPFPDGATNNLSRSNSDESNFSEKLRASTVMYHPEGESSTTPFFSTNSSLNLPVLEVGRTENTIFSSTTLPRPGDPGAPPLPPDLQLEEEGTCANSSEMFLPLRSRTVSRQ
Caspase recruitment domain-containing protein 9 (Homo sapiens) + B-cell lymphoma/leukemia 10 (Homo sapiens), sequence (Q9H257 whole entry, looked up, the tested form may be a part): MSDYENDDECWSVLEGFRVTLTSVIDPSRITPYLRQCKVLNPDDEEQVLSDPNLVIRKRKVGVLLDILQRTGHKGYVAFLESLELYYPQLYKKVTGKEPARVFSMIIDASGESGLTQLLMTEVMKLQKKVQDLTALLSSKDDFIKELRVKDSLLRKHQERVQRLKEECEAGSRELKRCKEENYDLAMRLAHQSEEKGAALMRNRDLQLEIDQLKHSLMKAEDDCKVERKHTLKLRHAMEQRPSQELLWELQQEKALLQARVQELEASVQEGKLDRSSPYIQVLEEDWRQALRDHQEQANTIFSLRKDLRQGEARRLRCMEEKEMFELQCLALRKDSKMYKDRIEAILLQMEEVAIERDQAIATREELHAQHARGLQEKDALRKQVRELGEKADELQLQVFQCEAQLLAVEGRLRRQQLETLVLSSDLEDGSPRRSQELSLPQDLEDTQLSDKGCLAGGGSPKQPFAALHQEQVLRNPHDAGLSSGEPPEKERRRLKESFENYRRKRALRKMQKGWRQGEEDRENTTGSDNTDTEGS
Details: not given
As to `COc1ccc(-c2nnc(-c3nc(Nc4ccc(NC(C)=O)cc4)c4ccccc4n3)o2)cc1`, the AC50 is 64.5 µM.

For `O=S(=O)(c1ccc2nc(-c3ccco3)c(-c3ccco3)nc2c1)N1CCOCC1`, the concentration at half-maximal activity (AC50) was 20.3 µM. On the same count and under the same terms, under `Cc1ccc2cc(CN(Cc3ccco3)S(C)(=O)=O)c(=O)[nH]c2c1` stands > 160 µM (inactive); under `O=C(O)CCc1ccc(-c2cccs2)n1NC(=O)c1ccco1`, > 160 µM (inactive); under `COc1ccc2nc(-c3ccco3)c(-c3ccco3)nc2c1`, 39.2 µM. On the same count and under the same terms, under `C=CC(=O)N1CCCC2(CCN(CCN3CCCC3)C2=O)C1` (stereo not given) stands 22.7 µM; under `O=C(NC1CC1)c1cc(-c2ccco2)nc2ccccc12`, > 160 µM (inactive); under `O=C(COC(=O)c1cc(-c2cccs2)nc2ccccc12)NCc1ccco1`, > 160 µM (inactive). In the case of `O=C(NCc1ccco1)c1c2c(nc3ccccc13)CCC2`, the AC50 was > 160 µM (inactive).

Staying with this experiment, now noted: at 80 µM (top of the series).
Consider `Cc1ccc(C(=O)Nc2ccc(N3CCC(C(N)=O)(N4CCCCC4)CC3)c(C(=O)O)c2)cc1`, for which the “activity change, negative = inhibition” value is “inactive”. Still for that read-out and setting: to `O=C(O)COc1ccc(-n2cccc2)cc1` belongs “inactive”; to `O=C(Nc1nc(-c2ccco2)c(-c2ccco2)s1)c1ccco1`, “inactive”; to `CC(C(=O)N1CCCC1)N1CCN(c2ccccc2O)CC1` (stereo not given), “inactive”. In the case of `O=C(COC(=O)c1cc(-c2ccco2)nc2ccccc12)NCc1ccccc1`, the “activity change, negative = inhibition” value was “inactive”. In the case of `O=S(=O)(Nc1nc2ccc(S(=O)(=O)N3CCCCC3)cc2s1)c1ccccc1`, the “activity change, negative = inhibition” value is “inactive”.

Source of the values: PubChem BioAssay AID1259340 (Broad Institute, 2017).
